Laboratory results from PubChem BioAssay (NCI).
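Exposure lasted 48 hours, with cells grown in 96-well plates and compounds tested at five concentrations. TGI is the concentration that stops growth completely.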

Key:
Assay in all cases: NCI tumour cell line growth inhibition, 48 h
A498 renal = system: A498 renal
EKVX NSCLC = system: EKVX NSCLC
HS 578T breast = system: HS 578T breast
HT29 colon = system: HT29 colon
K-562 leukemia = system: K-562 leukemia
NCI-H522 lung = system: NCI-H522 lung
OVCAR-3 ovarian = system: OVCAR-3 ovarian
RPMI-8226 leukemia = system: RPMI-8226 leukemia
SF-295 CNS = system: SF-295 CNS
SK-MEL-5 melanoma = system: SK-MEL-5 melanoma

Structure (SMILES)	TGI (A498 renal)	TGI (EKVX NSCLC)	TGI (HS 578T breast)	TGI (HT29 colon)	TGI (K-562 leukemia)	TGI (NCI-H522 lung)	TGI (OVCAR-3 ovarian)	TGI (RPMI-8226 leukemia)	TGI (SF-295 CNS)	TGI (SK-MEL-5 melanoma)
CN(C(=O)Cc1ccccc1)n1cn[n+](CC(=O)OC(C)(C)C)c1	> 10 µM	> 10 µM	> 10 µM	> 10 µM	> 10 µM	> 10 µM	> 10 µM	> 10 µM	> 10 µM	> 10 µM
O=C1c2cc3c(cc2NC(c2ccccc2F)C1O)OCO3 (stereo not given)	58.1 µM	> 70.8 µM	48.2 µM	43.3 µM	> 100 µM	34.4 µM	> 62.7 µM	> 100 µM	43.6 µM	> 100 µM
CO[C@@]12C[C@H](CNC(=O)c3ccc[nH]3)O[C@@H]1NC(=O)N2	> 100 µM	> 100 µM	> 100 µM	> 100 µM	> 100 µM	> 100 µM	> 100 µM	> 100 µM	> 100 µM	> 100 µM
COCN1C(=O)[C@@H]2CCCN2C(=O)c2ccc(N)cc21	> 100 µM	> 100 µM	> 100 µM	> 100 µM	> 100 µM	> 100 µM	> 100 µM	> 100 µM	> 100 µM	> 100 µM
Nc1nc(Cl)c(CO)c(NCC2(CO)CCC2)n1	> 100 µM	> 100 µM	> 100 µM	> 100 µM	> 100 µM	> 100 µM	> 100 µM	> 100 µM	> 100 µM	> 100 µM
CC(=O)OC1CCn2c1nc1cc([N+](=O)[O-])c(C)cc12 (stereo not given)	> 100 µM	> 100 µM	> 100 µM	> 100 µM	> 100 µM	> 100 µM	> 100 µM	> 100 µM	> 100 µM	> 100 µM
CC(=O)OCC1OC(OCCCOP(=O)(OCCC#N)OCC2OC(n3cnc4c(N)ncnc43)C(OC(=O)c3ccccc3)C2OC(=O)c2ccccc2)C(OC(C)=O)C(OC(C)=O)C1OC(C)=O (stereo not given)	> 100 µM	> 100 µM	> 100 µM	> 100 µM	> 100 µM	> 100 µM	> 100 µM	> 100 µM	> 100 µM	> 100 µM
CCN(CC)c1c(C(C)(C)C)c(=O)n2ccsc2c1OC(C)=O	33.6 µM	29.3 µM	42.8 µM	28.4 µM	> 100 µM	27.7 µM	30.8 µM	> 100 µM	30.7 µM	32.2 µM
CCOP1(=O)CC(C)=C(Cl)C(OC)C1 (stereo not given)	> 100 µM	> 100 µM	> 100 µM	> 100 µM	77.3 µM	> 100 µM	> 100 µM	> 100 µM	> 100 µM	> 100 µM
COC(=O)[C@@H]1c2c(oc3cc(CO)cc(O)c3c2=O)C=C[C@H]1O	20 µM	27.4 µM	55.8 µM	14.2 µM	> 100 µM	3.64 µM	20.7 µM	9.72 µM	35.7 µM	28.5 µM
CCOC(=O)C1=C(O)CC(=O)N=C1N1CCCC1	> 100 µM	> 100 µM	> 100 µM	> 100 µM	> 100 µM	> 100 µM	> 100 µM	> 100 µM	> 100 µM	> 100 µM
Nc1nc(N)c2nc(CN(C=O)c3ccc(C(=O)O)cc3)cnc2n1	> 79.9 µM	> 100 µM	> 100 µM	> 100 µM	> 100 µM	> 100 µM	> 100 µM	> 100 µM	> 100 µM	> 100 µM
CN(C)S(=O)(=O)c1ccc2[nH]c(O)c(C3=Nc4ccccc4C3=O)c2c1	97.4 µM	> 100 µM	76.9 µM	> 100 µM	> 100 µM	> 100 µM	> 100 µM	> 100 µM	26.7 µM	> 100 µM
COC(=O)CN1CCN(c2cccc3c2CCCC3)CC1	> 100 µM	> 100 µM	> 100 µM	65.8 µM	> 100 µM	> 100 µM	72.4 µM	85.8 µM	> 100 µM	60 µM
Cc1c(C#N)c2nnn(-c3cccc(Cl)c3)c(=O)n2c1-c1ccccc1	13 µM	> 100 µM	> 100 µM	9.18 µM	4.03 µM	8.59 µM	5.59 µM	2.61 µM	4.98 µM	19.2 µM
Nc1nc(Sc2ccc([N+](=O)[O-])c3nonc23)c2[nH]cnc2n1	13.8 µM	19 µM	62.5 µM	20.9 µM	2.41 µM	2.44 µM	13.8 µM	5.62 µM	16.1 µM	7.8 µM
COc1cc(/C=C(\C)[N+](=O)[O-])cc(OC)c1	25 µM	33.9 µM	68.6 µM	38.5 µM	5.52 µM	3.64 µM	31.8 µM	9.04 µM	53.6 µM	31.7 µM

Structure (SMILES)	TGI (A498 renal)	TGI (EKVX NSCLC)	TGI (HS 578T breast)	TGI (HT29 colon)	TGI (K-562 leukemia)	TGI (NCI-H522 lung)	TGI (OVCAR-3 ovarian)	TGI (RPMI-8226 leukemia)	TGI (SF-295 CNS)	TGI (SK-MEL-5 melanoma)
CCOC(=O)N1c2ccccc2C(C)=CC(C)C1C (stereo not given)	96.5 µM	99 µM	82.2 µM	40.3 µM	> 100 µM	89.6 µM	51.1 µM	> 100 µM	68.3 µM	39.6 µM
Clc1ccc(-c2cn3c(nc4ccccc43)c(-c3ccccc3)n2)cc1	54 µM	> 100 µM	66 µM	> 67.5 µM	> 100 µM	43.3 µM	> 82.4 µM	> 100 µM	28.3 µM	46.5 µM
CNC(=O)[C@H](Cc1ccccc1)NC(=O)N(CCC#N)CCN(C(=O)N[C@@H](Cc1ccccc1)C(=O)OC)c1ccccc1	> 100 µM	> 100 µM	> 100 µM	> 100 µM	> 100 µM	> 100 µM	> 100 µM	> 100 µM	> 100 µM	> 100 µM
C=C1OC2OC(C)C(NC(=O)OCC(Cl)(Cl)Cl)C(OC(C)=O)C2O1 (stereo not given)	> 100 µM	> 100 µM	> 100 µM	> 100 µM	> 100 µM	> 100 µM	> 100 µM	> 100 µM	> 100 µM	> 100 µM
Cc1nc2ccc(NCCN(C)C)c3c(=O)c4ccccc4n1c23	12.1 µM	14.2 µM	9.15 µM	10.8 µM	> 54.8 µM	9.91 µM	35.6 µM	26.2 µM	14.2 µM	8.95 µM
C[N+](C)(CCNc1ccc(NCC[N+](C)(C)Cc2ccc([N+](=O)[O-])cc2)c2c1C(=O)c1c(O)ccc(O)c1C2=O)Cc1ccc([N+](=O)[O-])cc1	> 50 µM	> 50 µM	> 50 µM	> 50 µM	> 5 µM	> 50 µM	> 50 µM	> 50 µM	> 50 µM	> 50 µM
Cc1cccc2c(=O)c3c(O)cc(O)cc3n(C)c12	98.7 µM	> 100 µM	> 100 µM	> 100 µM	> 100 µM	> 100 µM	> 100 µM	> 100 µM	> 100 µM	> 100 µM
CC(=O)O[C@H]1[C@@H](N2CCOCC2)C[C@H]2[C@@H]3CC=C4C[C@@H](N5CCCC5)CC[C@]4(C)[C@H]3CC[C@@]21C	> 100 µM	> 100 µM	> 100 µM	> 100 µM	> 100 µM	> 100 µM	> 100 µM	> 100 µM	> 100 µM	> 100 µM
CC1(C)N=C(C(N)=O)c2[nH]cnc2N1	> 100 µM	> 100 µM	> 100 µM	> 100 µM	> 100 µM	> 100 µM	> 100 µM	> 100 µM	> 100 µM	> 100 µM
CC(=O)c1csc2c1C(=O)c1ccccc1C2=O	> 100 µM	18.6 µM	7.11 µM	4.5 µM	> 100 µM	4.1 µM	> 100 µM	89.9 µM	3 µM	0.376 µM
CCOC(=O)c1ccc(N(CCOS(C)(=O)=O)CCOS(C)(=O)=O)cc1	> 100 µM	> 100 µM	> 100 µM	> 100 µM	> 100 µM	41.1 µM	> 100 µM	> 100 µM	> 100 µM	> 100 µM
O=c1cc(NNc2cccc3ccccc23)[nH]c(=O)[nH]1	35.7 µM	27.7 µM	68.7 µM	31.9 µM	> 100 µM	28.7 µM	27.3 µM	33.3 µM	31.4 µM	29.7 µM
CCCOC(=O)c1cc(O)c(O)c(O)c1	> 100 µM	> 100 µM	> 100 µM	> 100 µM	> 100 µM	77 µM	79.8 µM	> 100 µM	> 100 µM	> 100 µM
COc1ccc(-c2nc3ccccc3c(=O)[nH]2)cc1	> 100 µM	> 100 µM	31.9 µM	> 100 µM	> 100 µM	> 100 µM	> 100 µM	> 100 µM	> 100 µM	> 100 µM
O=c1c(-c2nc3ccccc3c3ccccc3c2=O)nc2ccccc2c2ccccc12	> 100 µM	> 100 µM	> 100 µM	> 100 µM	> 100 µM	> 100 µM	97.3 µM	> 100 µM	> 100 µM	86.2 µM
CC1OC(OC2C(O)CC(OC3C(O)CC(OC4CCC5(C)C(CCC6C5CCC5(C)C(C7=CC(=O)OC7)C(O)CC65O)C4)OC3C)OC2C)CC(O)C1O (stereo not given)	0.908 µM	0.63 µM	> 100 µM	0.886 µM	> 100 µM	0.157 µM	0.497 µM	1.52 µM	0.809 µM	0.533 µM
Cc1nn2c(=O)c([N+](=O)[O-])c(/C=C/c3ccc(F)cc3)nc2s1	35.6 µM	22.5 µM	28.6 µM	16.5 µM	> 31.6 µM	18 µM	16.6 µM	19.7 µM	22.8 µM	15.8 µM
